Laboratory results published in ChEMBL document CHEMBL3621193, “New arylalkanones from Horsfieldia macrobotrys, effective antidiabetic agents concomitantly inhibiting α-glucosidase and free radicals” (Bioorg Med Chem Lett, 2015).

What was measured:
[1] = target: T1, Sucrase-isomaltase, intestinal (Rattus norvegicus, UniProt P23739); test: Competitive inhibition of rat intestinal Sucrase using sucrose as substrate assessed as glucose release after 40 mins by Lineweaver-Burk plot analysis
[2] = Inhibition of baker's yeast alpha-glucosidase type-1 using p-nitrophenyl-alpha-D-glucopyranoside as substrate preincubated for 30 mins followed by substrate addition measured after 20 mins by microplate reader analysis; parameters: species or system Saccharomyces cerevisiae
[3] = Antioxidant activity assessed as DPPH radical scavenging activity incubated for 30 mins in dark condition by spectrophotometric analysis; assay type: physicochemical; settings: 0.5 h
[4] = target: T1, Sucrase-isomaltase, intestinal; test: Inhibition of rat intestinal Sucrase using sucrose as substrate assessed as glucose release after 40 mins by glucose oxidase method
[5] = target: T1, Sucrase-isomaltase, intestinal; test: Non-competitive inhibition of rat intestinal Sucrase using sucrose as substrate assessed as glucose release after 40 mins by Lineweaver-Burk plot analysis

T1 sequence (P23739 1-1013 limits assumed): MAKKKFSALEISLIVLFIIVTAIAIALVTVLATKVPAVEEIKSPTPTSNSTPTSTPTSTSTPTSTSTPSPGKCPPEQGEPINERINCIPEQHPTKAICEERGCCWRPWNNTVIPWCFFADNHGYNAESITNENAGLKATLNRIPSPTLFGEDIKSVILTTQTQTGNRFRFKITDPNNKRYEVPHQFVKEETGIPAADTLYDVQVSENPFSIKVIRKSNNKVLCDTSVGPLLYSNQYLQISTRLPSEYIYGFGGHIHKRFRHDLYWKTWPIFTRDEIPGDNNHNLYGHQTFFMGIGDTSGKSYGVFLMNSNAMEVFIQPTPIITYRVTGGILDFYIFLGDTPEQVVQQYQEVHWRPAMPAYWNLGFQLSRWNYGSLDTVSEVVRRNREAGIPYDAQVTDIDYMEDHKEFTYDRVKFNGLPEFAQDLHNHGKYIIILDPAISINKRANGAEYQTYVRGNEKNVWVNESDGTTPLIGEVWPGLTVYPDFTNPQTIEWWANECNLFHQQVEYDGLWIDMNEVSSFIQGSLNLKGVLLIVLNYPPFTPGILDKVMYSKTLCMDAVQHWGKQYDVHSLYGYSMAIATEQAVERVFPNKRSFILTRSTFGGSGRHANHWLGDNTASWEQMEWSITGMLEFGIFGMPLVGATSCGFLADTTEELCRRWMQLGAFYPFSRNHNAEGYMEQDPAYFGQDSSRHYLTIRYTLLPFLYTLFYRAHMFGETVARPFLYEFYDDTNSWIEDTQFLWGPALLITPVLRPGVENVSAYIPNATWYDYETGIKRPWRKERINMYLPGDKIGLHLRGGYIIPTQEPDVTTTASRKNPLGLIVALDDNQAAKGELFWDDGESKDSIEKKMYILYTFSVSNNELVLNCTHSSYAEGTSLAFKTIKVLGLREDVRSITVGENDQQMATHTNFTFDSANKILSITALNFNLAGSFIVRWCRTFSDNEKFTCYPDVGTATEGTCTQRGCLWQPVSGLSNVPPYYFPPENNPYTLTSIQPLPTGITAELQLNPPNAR
T1 sequence (P23739 1014-1841 limits assumed): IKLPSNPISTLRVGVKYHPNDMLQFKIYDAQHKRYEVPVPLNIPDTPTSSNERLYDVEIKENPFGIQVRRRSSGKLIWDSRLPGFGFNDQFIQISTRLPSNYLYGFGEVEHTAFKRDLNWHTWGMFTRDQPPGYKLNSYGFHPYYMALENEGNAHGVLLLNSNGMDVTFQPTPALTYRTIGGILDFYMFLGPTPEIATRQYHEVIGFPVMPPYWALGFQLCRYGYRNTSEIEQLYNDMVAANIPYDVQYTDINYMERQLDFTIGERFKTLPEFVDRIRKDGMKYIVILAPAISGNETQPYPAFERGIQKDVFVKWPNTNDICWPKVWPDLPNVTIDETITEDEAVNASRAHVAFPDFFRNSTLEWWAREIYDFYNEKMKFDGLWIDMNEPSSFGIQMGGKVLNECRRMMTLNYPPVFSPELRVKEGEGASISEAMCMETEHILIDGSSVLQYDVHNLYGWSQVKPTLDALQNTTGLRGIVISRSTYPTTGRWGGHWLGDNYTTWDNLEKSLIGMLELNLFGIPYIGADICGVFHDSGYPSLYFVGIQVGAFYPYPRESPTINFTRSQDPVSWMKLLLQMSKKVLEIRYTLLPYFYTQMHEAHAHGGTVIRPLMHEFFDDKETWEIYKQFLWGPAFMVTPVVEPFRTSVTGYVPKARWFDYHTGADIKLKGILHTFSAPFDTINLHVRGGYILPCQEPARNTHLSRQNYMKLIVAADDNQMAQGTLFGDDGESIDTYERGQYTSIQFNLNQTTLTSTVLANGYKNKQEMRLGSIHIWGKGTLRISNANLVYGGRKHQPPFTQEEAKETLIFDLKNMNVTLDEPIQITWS

Ki [1] [µM] | IC50 ([2]; read-out: IC50) [µM] | SC50 [3] | IC50 ([4]; read-out: IC50) [µM] | Ki [5] [µM] | IC50 [4] | IC50 [2] | SMILES
1090 | 22.6 | 1.6 mM | 94.9 | 540 |  |  | O=C(CCCCCCC[C@H](O)c1ccccc1)c1c(O)cc(O)cc1O
3070 | 5.65 | 0.43 mM | 47.4 | 380 |  |  | O=C(CCCCCCC[C@H](O)c1ccccc1)c1c(O)cc(O)c(C(CCc2ccccc2)c2ccc(O)cc2O)c1O (stereo partly drawn)
 | 529 | 6.76 mM |  |  | Not Active |  | O=C1C[C@@H](c2ccccc2)Oc2c1c(O)cc(O)c2[C@@H]1O[C@H](CO)[C@@H](O)[C@H](O)[C@H]1O
 | 103 | Not Active |  |  |  |  | C[C@H]1O[C@H](O[C@H]2[C@H](O)[C@@H](O)[C@@H](O[C@H]3[C@H](O)[C@@H](O)C(O)O[C@@H]3CO)O[C@@H]2CO)[C@H](O)[C@@H](O)[C@@H]1N[C@H]1C=C(CO)[C@@H](O)[C@H](O)[C@H]1O (stereo partly drawn) [ACARBOSE]
 |  | 2.45 mM |  |  | Not Active | Not Active | O=C1O[C@H]([C@@H](O)CO)C(O)=C1O [ASCORBIC ACID]
